The structures appear in SMILES notation.

The format of data set [1] is physicochemical.
A short description of data set [2]: Drug release from SEDDS during in vitro digestion, EPR. In kind it is physicochemical.
The format of data set [3] is physicochemical. As to conditions: soybean oil in fed state medium, absence of lipolysis.
For data set [4] the following is noted: cited from earlier work.

On to `CC1(C)CC(OC(=O)c2ccccc2)CC(C)(C)N1[O]` [TB, TEMPOL benzoate], for which the “percentage of released drug from SEDDS” value in data set [1] (90 minutes, absence of digestion) worked out at 9%. In addition, the “drug released from SEDDS” value in data set [1] (over 18 hours, absence of digestive enzyme) turned out to be 14%. The “time of leveling off of drug release” value in data set [2] stood at 50 min. The “TB uptake constant into oil, Prel” value in data set [3] is 0.0352 ×10⁻⁶ cm/s. For the same compound, in data set [4], the “octanol/water partition coefficient (log P)” value is 2.46.

For orientation: logP means the decadic logarithm of the partition coefficient of the neutral form, usually between octanol and water. As for `CC(C)(Sc1cc(C(C)(C)C)c(O)c(C(C)(C)C)c1)Sc1cc(C(C)(C)C)c(O)c(C(C)(C)C)c1` [Probucol], in data set [4], the logP is 8.92.

The values are drawn from paper PMC4281523 (Pharmaceutical research, 2013).
